Source: US8703066B2, “Sterilization system and method” (Noxilizer, Inc., priority 2004, dated 2014)

What was measured:
B. subtilis (vegetative) = assay: Portable system (blood storage container) sterilization of stainless steel coupons; assay type: cell-based, Bacillus subtilis; details: fifteen minute sterilization cycle; NO from acidified diazeniumdiolate; 1 ATM; stainless steel coupon, at least 10^8 CFU/ml
Excerpt: (§1) Similar to Example 1, a portable system is devised using blood storage containers and other laboratory items. In this construct, a blood storage container (Nexell, Irvine, Calif.; Lifecell PL732 plastic tissue culture flask) serves as the sterilization chamber. It has multiple ports, is easily attached to tubing or other chambers, and is easily cut and heat sealed for insertion and removal of contaminated/sterilized samples. The heat seal is strong and holds well at pressure, even though 1 ATM of pressure is used experimentally. Two 60 ml syringes connected to each other and a line of tubing by a three-way stopcock are employed to mix acidic buffer in one syringe with NO-releasing diazeniumdiolate in the other syringe. The tubing is connected to the blood container/sterilization chamber.
(§2) The stopcock is turned so that the acidic buffer can be added to the syringe containing the diazeniumdiolate. The valve is immediately closed to the buffer syringe and opened to the sterilization chamber. The 300 cc sterilization chamber inflates in about 15 seconds. Experiments are performed as described above, except that the devised system is used instead of the pressure vessel.
The test organisms are cultured overnight in BHI. The cultures contained at least 10^8 CFU/ml (100-fold greater than FDA testing guidelines) based on standardized ABS595 curves for each organism. […]

cocktail of bacteria = assay: Humidity effects: sterilization of sealed and unsealed dry stainless steel coupons; assay type: cell-based; details: 15 min sterilization cycle at 1 ATM, 2/2 trials
Procedure: Several humidifying paradigms and the ability to sterilize through a gas sterilization seal pouch is tested. A cocktail of bacteria is used, all grown to about 10^8 CFU/ml and mixed in equal volume. Stainless steel coupons are dipped, allowed to dry, and subject to one of three methods. Method A samples are wrapped in a moist Kimwipe, Method B samples are left dry, and Method C samples are sealed, dry, in a V. Mueller™ Dual Peel Seal Pouch, designed for gas and autoclave sterilizations. Samples from methods B and C are placed in the sterilization chamber with a moist Kimwipe, which is placed in the chamber so as to insure maximal separation of the Kimwipe and the sample to be sterilized. The chamber is re-sealed carefully so as not to disturb the positioning of the samples relative to the Kimwipe. The samples are subject to a 15 min sterilization cycle at 1 ATM, removed under sterile conditions, and the samples are placed in BHI media as described above. Control samples are handled identically except for the chamber being gassed with […]. All controls reached greater than […] total CFU/ml in 24 hrs as determined by ABS595 standardization curves.

[1] = tested on: bacterial cocktail containing B. subtilis, S. marcesens, and S. epidermides; assay: Sterilization of medical materials (tubing, needle); assay type: cell-based; details: 15 min sterilization cycle, about 10^8 total CFU/ml
Procedure: An additional study is performed to test medically relevant materials such as needles and plastic tubing. Teflon (⅛′ ID), polyethylene (1.77 mm ID), vinyl (0.5 mm ID) tubing and a 30 ga. disposable needle are dipped in a bacterial cocktail containing B. subtilis, S. marcesens, and S. epidermides at about 10^8 total CFU/ml The samples are placed in the sterilization chamber and sealed. In each case, the lumen of the tubing or contained at least some visually confirmed inoculum. […] The controls for each material reached at least 10^6 total CFU/ml in 24 hrs as determined by ABS595 standardization curves.

[2] = tested on: Staphylococcus epidermides (str 21977); assay: Pressure vessel sterilization of contaminated stainless steel coupons with NO gas; assay type: cell-based; details: five minute sterilization cycle; pure NO at atmospheric pressure; stainless steel coupons dipped in at least 10^8 CFU/ml
Excerpt: (§3) A glass pressure vessel is connected to a scrubbed NO gas tank source. The pressure vessel is purged five times with Argon gas to eliminate atmospheric oxygen (preventing formation of NO2.) and an additional three purges of NO are used to ensure a pure NO atmosphere and consistent results of bactericidal activity. To test the sterilization method: Bacillus subtilis var niger 9372 is used (after obtaining >80% endospore formation; a standard for ethylene oxide and autoclave test sterilization), as well as organisms commonly found on the epidermis: Staphylococcus aureus (str 21769) and Staphylococcus epidermides (str 21977), and the enteric organisms: Klebsiella pneumoniae (str 21991) and Serratia marcesens (str 21140). This particular Serratia strain has been found in previous studies to be one of the most resistant bacteria to the bactericidal effects of NO in culture (Raulli et al., 2002).
(§4) The organisms are cultured overnight in BHI. The cultures contained at least 10^8 CFU/ml based on standardized ABS595 curves for each organism. Stainless steel coupons, 3×1 cm, are dipped in the cultures, and either dried in ambient air first or placed in the pressure vessel still wet from the culture dip. The coupons are exposed to NO gas at atmospheric pressure for decreasing time periods starting with 45 min and working back to 5 min. Control samples are handled identically, except the pressure vessel was gassed with nitrogen.
(§5) The sealed vessel is carefully opened in a laminar flow hood after all the NO had been purged with Argon. The samples are removed aseptically with sterilized tongs and placed in culture tubes containing sterile BHI media. The samples are incubated in a vigorously shaking waterbath at 35° C. The samples are observed (digitally photographed) 24 hrs later, placed back in the waterbath and are measured for absorbance 72 hrs later. The controls had >10^8 CFU/ml after 24 hrs.

[3] = tested on: Staphylococcus aureus (str 21769); assay: as above; assay type: cell-based; details: five minute sterilization cycle; pure NO at atmospheric pressure; stainless steel coupons dipped in at least 10^8 CFU/ml
Excerpt: as §3, §4, §5

[4] = tested on: Klebsiella pneumoniae (str 21991); assay: as above; assay type: cell-based; details: five minute sterilization cycle; pure NO at atmospheric pressure; stainless steel coupons dipped in at least 10^8 CFU/ml
Excerpt: as §3, §4, §5

[5] = tested on: Serratia marcesens (str 21140); assay: as above; assay type: cell-based; details: five minute sterilization cycle; pure NO at atmospheric pressure; stainless steel coupons dipped in at least 10^8 CFU/ml
Excerpt: as §3, §4, §5

[6] = tested on: Bacillus subtilis var niger 9372; assay: as above; assay type: cell-based; details: five minute sterilization cycle; pure NO at atmospheric pressure; stainless steel coupons dipped in at least 10^8 CFU/ml
Excerpt: as §3, §4, §5

[7] = tested on: sporulated B. subtilis var. niger; assay: Sterilization with varying quantities of delivered nitric oxide, contaminated stainless steel strips; assay type: cell-based; details: 5%, 2.5% and 1% NO in air, five minutes, culture in LB 48 hours then plating
Excerpt: A blood storage container (Nexell, Irvine, Calif.; Lifecell PL732 plastic tissue culture flask) is used as the sterilization chamber. Strips of stainless steel are dipped in 10^6 CFU/ml sporulated B. subtilis var. niger (as determined by ABS595 standardization curves). The strips are allowed to air dry, placed in the sterilization chamber, and then the sterilization chamber is heat sealed. The sterilization chamber is evacuated using a syringe and controlling air flow with the sterilization chamber valves. A known quantity of air is added to the vessel using a graduated syringe.
An NO-generating donor compound is placed in a 7 cc gas generation chamber. The gas generation chamber is attached to the storage container through luer lock connectors. The liquid activator, 3.0N HCl is added to the gas generation chamber and the generated gas is allowed to flow into the sterilization chamber. After a brief generation period, the gas is sealed in the sterilization chamber using a compression valve.
Varying quantities of NO gas, namely 10%, 5%, 2.5% and 1% NO, are tested for their efficacy in the sterilization chamber. The quantity (%) of NO gas generated and added to the sterilization chamber is calculated from the number of moles of NO required to be generated to result in the desired percentage of NO. […]

Serratia marcesens = assay: Portable system (blood storage container) sterilization of stainless steel coupons; assay type: cell-based; details: fifteen minute sterilization cycle; NO from acidified diazeniumdiolate; 1 ATM; stainless steel coupon, at least 10^8 CFU/ml
Excerpt: as §1, §2
(§6) The test organisms are cultured overnight in BHI. The cultures contained at least 10^8 CFU/ml (100-fold greater than FDA testing guidelines) based on standardized ABS595 curves for each organism. Stainless steel coupons, 3×1 cm, are dipped in the cultures, and either dried in ambient air first or placed in the pressure vessel still wet from the culture dip. The dried samples are dipped in sterile BHI media before being placed in the sterilization chamber.

[8] = tested on: Staphylococcus epidermides; assay: as above; assay type: cell-based; details: fifteen minute sterilization cycle; NO from acidified diazeniumdiolate; 1 ATM; stainless steel coupon, at least 10^8 CFU/ml
Excerpt: as §1, §2, §6

[9] = tested on: Bacillus subtilis (spore); assay: as above; assay type: cell-based; details: fifteen minute sterilization cycle; NO from acidified diazeniumdiolate; 1 ATM; stainless steel coupon, at least 10^8 CFU/ml
Excerpt: as §1, §2, §6

[N]=O [NO, nitric oxide]
Killed (trials) (B. subtilis (vegetative)): 2/2 Killed | Killed (trials) (cocktail of bacteria; Method A Moist Kimwipe Wrap): Killed | Killed (trials) (cocktail of bacteria; Method B Dry sample, moist Kimwipe apart in chamber): Killed | Killed (trials) (cocktail of bacteria; Method C Dry, Sealed Sample in Dual Peel Seal Pouch, moist Kimwipe apart in chamber): Killed | Killed (trials) ([1]; Disposable Needle 30 ga.): 2/2 Killed | Killed (trials) ([1]; Polyethylene Tubing 1.77 mm ID): 2/2 Killed | Killed (trials) ([1]; Teflon Tubing 1/8' ID): 2/2 Killed | Killed (trials) ([1]; Vinyl Tubing 0.5 mm ID): 2/2 Killed | Killed (trials with no bacterial growth / trials) [2]: 3/3 Killed | Killed (trials with no bacterial growth / trials) [3]: 3/3 Killed | Killed (trials with no bacterial growth / trials) [4]: 3/3 Killed | Killed (trials with no bacterial growth / trials) [5]: 3/3 Killed | Killed (trials with no bacterial growth / trials) [6]: 3/3 Killed | killing of 10^6 CFU/ml sporulated B. subtilis var. niger [7]: effective at killing | Killed (trials) (Serratia marcesens): 3/3 Killed | Killed (trials) [8]: 3/3 Killed | Killed (trials) [9]: 2/2 Killed
